Molecules are shown by their SMILES. Entries after “also recorded” stand apart in the source; their conditions may differ. Peptide text beside a SMILES is read from it. Some results are limits rather than exact numbers.

The values below come from patent publication US6316409A, “Modified ligands of calcium-dependent binding proteins” (Medical Research Council, priority 1996, dated 2001).

In one assay the target is calmodulin (Bos taurus, UniProt P62157). The assay can be described thus: koff by competition experiments, native PAGE of fluorescein-labelled peptide/calmodulin complexes. The format is binding, bovine. On the set-up: Complexes between calmodulin from bovine brain (1 μM, Sigma); purchased Sigma; host or cells: bovine brain (tissue-derived). The following applies: for koff: competition with 30-fold excess unlabelled peptide, room temperature, gel buffer, read-out: koff (s^-1)^C; for dissociation from calmodulin in competition with excess unlabelled peptide, in words: FIG. 3. The method, then:
Complexes between calmodulin from bovine brain (1 μM, Sigma) and fluorescein-labelled sMLCK-derived peptides (as described in Table 1 (SEQ ID NOS:2-18)) were prepared in gel buffer (25% gel mix [4 g sucrose+1 mg bromophenol blue in water to give a 10 ml solution]+75% TBSC [50 mM TRIS pH 7.4, […]+50 μM CaCl2)] and run on a 15% native PAGE gel (5 ml 30% acrylamide-bisacrylamide solution+4.5 ml water+0.5 ml 3M Tris, pH 8.8, +1 μl 1M CaCl2 polymerised with 30 μl 25% ammonium persulphate and 9 μl TEMED) using 14.4 g/l glycine+3 g/l Tris-base+0.1 mM CaCl2 as running buffer. Peptides were labelled either with iodoacetamido fluorescein (Molecular Probes) or with iodoacetamido-LC-biotin (Pierce) essentially as previously described by Neri et al., (1995). In these conditions, the fluorescence of the positively-charged labelled peptides can be detected only if they form a stable complex with calmodulin.
In order to obtain an independent experimental confirmation if the BIAcore results, koff constants for peptides 1-17 towards calmodulin were determined by competition experiments. 30 nM fluorescein-labelled peptide/calmodulin complexes in gel buffer were competed at room temperature for different times with 30-fold excess of unlabelled peptide. The resulting mixtures were run on native PAGE gels and imaged by LUANA as described above. The bands in the image obtained were integrated using the LUANA software (Neri et al., 1996) and the corresponding intersities plotted versus time and fitted with a single exponential, from which koff constants were derived. In order to normalise band intensities against pipetting errors, the samples contained 6 nM free fluorescein which ran with the front. The fluorescein bands were integrated and used to normalise the calmodulin/fluorescent peptide complex band intensity. The results of competitions for peptides 1, 2, 3, 6, 9, and 14 are shown in this FIG. 3. Incubation time in minutes is indicated under the lanes.
The volumes of the bands were plotted versus competition time and fitted to a single exponential, from which koff values were derived.
The fastest competitions (peptides 1-4, 9 and 13, SEQ ID NOS:2-5,10, and 14) were over by the time the calmodulin/fluorescent peptide complex entered the gel (approximately 5-10 minutes from pipetting a molar excess of unlabelled peptide; FIG. 3), from which a condition on the off-rate constant koff >1×10^-3 s^-1 was derived. Even for these fast off-rates, complexes can be detected by native polyacrylamide gel electrophoresis because of the well known gel "cage effect" (Fried and Crothers, 1981; Garner and Revzin, 1981).

In assay [1] the target is T1, bovine brain calmodulin (Bos taurus, UniProt P62157).
T1 construct: Complexes between calmodulin from bovine brain (1 μM, Sigma); purchased Sigma; host or cells: bovine brain (tissue-derived)
The assay can be described thus: stopped-flow measurement of kisom of calmodulin-binding peptides. The settings on record: changes in tryptophan fluorescence. The text has this:
It has been shown by Torok and Trentham (1994) that smooth muscle MLCK-derived peptides bind to calmodulin with a biphasic kinetic according to the scheme: [drawing 1]
in which P is the peptide, C is calmodulin, P-C is the first complex formed on association of P and C, which then undergoes a conformational isomerisation to P-C*.
(§1) For a kinetic and thermodynamic characterisation of the binding of the peptides of the present invention to bovine brain calmodulin, we have measured the kinetic isomerisation, association, and dissociation constants from which dissociation constants can be derived.
kisom constants have been measured by stopped-flow, detecting changes in tryptophan fluorescence for all the peptides except 3 (SEQ ID NO:4), in which the tryptophan is replaced by alanine.

Assay [2] addresses T1, bovine brain calmodulin. The assay can be described thus: BIAcore surface plasmon resonance, kon and koff of calmodulin binding to biotinylated peptides. The following applies: for koff / kon: BIAcore; for koff: read-out: koff (s^-1)^B; for kon: read-out: kon (s^-1 M^-1)^B; for improvement in Kd / affinity for calmodulin over the wild type peptide, in words: Table 1.
Description: as §1
koff =k-1·k-2 /(k+2 +k-2)
Real-time interaction analysis by surface plasmon resonance on a BIAcore instrument (Jonsson et al., 1991) was used to determine kon and koff constants. Biotinylated peptides 1-17 were bound to commercially available streptavidin-coated microsensor chips (Pharmacia Biosensor), in order to achieve a surface capacity of 100-200 surface plasmon resonance units of calmodulin bound. Different concentrations of calmodulin (5, 10, 20, 50 and 100 nM in the order of FIG. 2) were injected and allowed to associate with the peptides. Regeneration of the surface was achieved by injection of 5 μl TBS+[…] which dissociates the calmodulin-peptide complex.

As a reminder, the koff is the rate constant with which the complex falls apart. In general, kon refers to the second-order rate constant of association. With `CC[C@H](C)[C@H](NC(=O)[C@H](Cc1ccccc1)NC(=O)[C@H](CC(N)=O)NC(=O)[C@H](CCCCN)NC(=O)[C@H](CCCCN)NC(=O)[C@H](Cc1c[nH]c2ccccc12)NC(=O)[C@H](CCCNC(=N)N)NC(=O)[C@H](C)NC(=O)[C@H](C)NC(=O)[C@H](C)NC(=O)[C@@H](N)CS)C(=O)N[C@@H](C)C(=O)N[C@H](C(=O)N[C@@H](C)C(=O)N[C@@H](C)C(=O)N[C@@H](C)C(=O)N[C@@H](CC(N)=O)C(=O)N[C@@H](CCCNC(=N)N)C(=O)N[C@@H](Cc1ccccc1)C(=O)N[C@@H](CCCCN)C(=O)N[C@@H](CCCCN)C(=O)N[C@H](C(=O)N[C@@H](CO)C(N)=O)[C@@H](C)CC)C(C)C` [Peptide 10] (H-CAAARWKKNFIAVAAANRFKKIS-NH2; N-terminus assumed), the koff on calmodulin was 7.9e-05 s⁻¹. Further, on bovine brain calmodulin [1], the “kisom. (s^-1)^A” value was 2.1 (11.0) × 10^-1 s^-1. Moreover, on bovine brain calmodulin [2], the “improvement of koff with respect to wild type, in words” value is “largest improvements”; the dissociation rate constant (koff) came to 0.0001 s⁻¹; the on-rate constant (kon) is 1.1e+06 M⁻¹ s⁻¹; the “improvement in Kd / affinity for calmodulin over the wild type peptide, in words” value is on record as “greatest improvement in affinity; also recorded: greatest improvement in Kd”.

In the case of `CC[C@H](C)[C@H](NC(=O)[C@H](Cc1ccccc1)NC(=O)[C@H](CC(N)=O)NC(=O)[C@H](CCCCN)NC(=O)[C@H](CCCCN)NC(=O)[C@H](Cc1c[nH]c2ccccc12)NC(=O)[C@H](CCCNC(=N)N)NC(=O)[C@H](C)NC(=O)[C@H](C)NC(=O)[C@H](C)NC(=O)[C@@H](N)CS)C(=O)N[C@@H](C)C(=O)N[C@@H](C)C(=O)N[C@@H](CO)C(=O)N[C@@H](C)C(=O)N[C@@H](C)C(=O)N[C@@H](CC(N)=O)C(=O)N[C@@H](CCCNC(=N)N)C(=O)N[C@@H](Cc1ccccc1)C(=O)N[C@@H](CCCCN)C(=O)N[C@@H](CCCCN)C(=O)N[C@H](C(=O)N[C@@H](CO)C(N)=O)[C@@H](C)CC` [Peptide 9] (H-CAAARWKKNFIAASAANRFKKIS-NH2; N-terminus assumed), at calmodulin, the “dissociation from calmodulin in competition with excess unlabelled peptide, in words” value is recorded as “dissociated from calmodulin in a few minutes” and the koff was at least 0.001 s⁻¹. Moreover, the “kisom. (s^-1)^A” value on bovine brain calmodulin [1] is 1.5 (10.3) × 10^-1 s^-1. For the same compound, on bovine brain calmodulin [2], the off-rate (koff) is 0.0012 s⁻¹ and the kon was 860000 M⁻¹ s⁻¹.

On to `CC[C@H](C)[C@H](NC(=O)[C@H](Cc1ccccc1)NC(=O)[C@H](C)NC(=O)[C@H](CCCCN)NC(=O)[C@H](CCCCN)NC(=O)[C@H](Cc1c[nH]c2ccccc12)NC(=O)[C@H](CCCNC(=N)N)NC(=O)[C@H](C)NC(=O)[C@H](C)NC(=O)[C@H](C)NC(=O)[C@@H](N)CS)C(=O)N[C@@H](C)C(=O)N[C@H](C(=O)N[C@@H](CO)C(=O)N[C@@H](C)C(=O)N[C@@H](C)C(=O)N[C@@H](CC(N)=O)C(=O)N[C@@H](CCCNC(=N)N)C(=O)N[C@@H](Cc1ccccc1)C(=O)N[C@@H](CCCCN)C(=O)N[C@@H](CCCCN)C(=O)N[C@H](C(=O)N[C@@H](CO)C(N)=O)[C@@H](C)CC)C(C)C` [Peptide 6] (H-CAAARWKKAFIAVSAANRFKKIS-NH2; N-terminus assumed), for which, at calmodulin, the “dissociation from calmodulin in competition with excess unlabelled peptide, in words” value is given as “hardly competed by an excess of unlabelled peptide after 1000 minutes” and the koff came to 2.2e-06 s⁻¹. Further, the “kisom. (s^-1)^A” value on bovine brain calmodulin [1] was 1.8 (10.9) × 10^-1 s^-1. In addition, on bovine brain calmodulin [2], the “improvement of koff with respect to wild type, in words” value is recorded as “largest improvements”; the koff was at least 0.0001 s⁻¹; the kon stood at 980000 M⁻¹ s⁻¹; the “improvement in Kd / affinity for calmodulin over the wild type peptide, in words” value was “greatest improvement in affinity; also recorded: greatest improvement in Kd”.

Consider `CC[C@H](C)[C@H](NC(=O)[C@H](Cc1ccccc1)NC(=O)[C@H](CC(N)=O)NC(=O)[C@H](CCCCN)NC(=O)[C@H](C)NC(=O)[C@H](Cc1c[nH]c2ccccc12)NC(=O)[C@H](CCCNC(=N)N)NC(=O)[C@H](C)NC(=O)[C@H](C)NC(=O)[C@H](C)NC(=O)[C@@H](N)CS)C(=O)N[C@@H](C)C(=O)N[C@H](C(=O)N[C@@H](CO)C(=O)N[C@@H](C)C(=O)N[C@@H](C)C(=O)N[C@@H](CC(N)=O)C(=O)N[C@@H](CCCNC(=N)N)C(=O)N[C@@H](Cc1ccccc1)C(=O)N[C@@H](CCCCN)C(=O)N[C@@H](CCCCN)C(=O)N[C@H](C(=O)N[C@@H](CO)C(N)=O)[C@@H](C)CC)C(C)C` [Peptide 4] (H-CAAARWAKNFIAVSAANRFKKIS-NH2; N-terminus assumed), for which the koff on calmodulin was at least 0.001 s⁻¹. Also, the “kisom. (s^-1)^A” value at bovine brain calmodulin [1] is listed as 2.4 (10.6) × 10^-1 s^-1. On bovine brain calmodulin [2], the koff amounted to 0.003 s⁻¹ and the kon was 1.3e+06 M⁻¹ s⁻¹.

On to `CC[C@H](C)[C@H](NC(=O)[C@H](Cc1ccccc1)NC(=O)[C@H](CC(N)=O)NC(=O)[C@H](C)NC(=O)[C@H](CCCCN)NC(=O)[C@H](Cc1c[nH]c2ccccc12)NC(=O)[C@H](CCCNC(=N)N)NC(=O)[C@H](C)NC(=O)[C@H](C)NC(=O)[C@H](C)NC(=O)[C@@H](N)CS)C(=O)N[C@@H](C)C(=O)N[C@H](C(=O)N[C@@H](CO)C(=O)N[C@@H](C)C(=O)N[C@@H](C)C(=O)N[C@@H](CC(N)=O)C(=O)N[C@@H](CCCNC(=N)N)C(=O)N[C@@H](Cc1ccccc1)C(=O)N[C@@H](CCCCN)C(=O)N[C@@H](CCCCN)C(=O)N[C@H](C(=O)N[C@@H](CO)C(N)=O)[C@@H](C)CC)C(C)C` [Peptide 5] (H-CAAARWKANFIAVSAANRFKKIS-NH2; N-terminus assumed), for which the koff on calmodulin was found to be 0.00021 s⁻¹. Besides, the “kisom. (s^-1)^A” value on bovine brain calmodulin [1] is recorded as 7.4 (11.0) × 10^-2 s^-1. Moreover, at bovine brain calmodulin [2], the koff came to 0.00029 s⁻¹ and the kon worked out at 1.1e+06 M⁻¹ s⁻¹.

In the case of `CC[C@H](C)[C@H](NC(=O)[C@H](C)NC(=O)[C@H](CC(N)=O)NC(=O)[C@H](CCCCN)NC(=O)[C@H](CCCCN)NC(=O)[C@H](Cc1c[nH]c2ccccc12)NC(=O)[C@H](CCCNC(=N)N)NC(=O)[C@H](C)NC(=O)[C@H](C)NC(=O)[C@H](C)NC(=O)[C@@H](N)CS)C(=O)N[C@@H](C)C(=O)N[C@H](C(=O)N[C@@H](CO)C(=O)N[C@@H](C)C(=O)N[C@@H](C)C(=O)N[C@@H](CC(N)=O)C(=O)N[C@@H](CCCNC(=N)N)C(=O)N[C@@H](Cc1ccccc1)C(=O)N[C@@H](CCCCN)C(=O)N[C@@H](CCCCN)C(=O)N[C@H](C(=O)N[C@@H](CO)C(N)=O)[C@@H](C)CC)C(C)C` [Peptide 7] (H-CAAARWKKNAIAVSAANRFKKIS-NH2; N-terminus assumed), the koff at calmodulin is 0.0006 s⁻¹. Also, the “kisom. (s^-1)^A” value at bovine brain calmodulin [1] is given as 2.5 (10.7) × 10^-1 s^-1. For the same compound, on bovine brain calmodulin [2], the off-rate constant (koff) turned out to be 0.00039 s⁻¹ and the kon amounted to 900000 M⁻¹ s⁻¹.

Regarding `CC[C@H](C)[C@H](NC(=O)[C@H](Cc1ccccc1)NC(=O)[C@H](CC(N)=O)NC(=O)[C@H](CCCCN)NC(=O)[C@H](CCCCN)NC(=O)[C@H](Cc1c[nH]c2ccccc12)NC(=O)[C@H](CCCNC(=N)N)NC(=O)[C@H](C)NC(=O)[C@H](C)NC(=O)[C@H](C)NC(=O)[C@@H](N)CS)C(=O)N[C@@H](C)C(=O)N[C@H](C(=O)N[C@@H](CO)C(=O)N[C@@H](C)C(=O)N[C@@H](C)C(=O)N[C@@H](CC(N)=O)C(=O)N[C@@H](CCCNC(=N)N)C(=O)N[C@@H](C)C(=O)N[C@@H](CCCCN)C(=O)N[C@@H](CCCCN)C(=O)N[C@H](C(=O)N[C@@H](CO)C(N)=O)[C@@H](C)CC)C(C)C` [Peptide 13] (H-CAAARWKKNFIAVSAANRAKKIS-NH2; N-terminus assumed), the koff on calmodulin was at least 0.001 s⁻¹; on bovine brain calmodulin [2], 0.00084 s⁻¹. For the same compound, the “kisom. (s^-1)^A” value on bovine brain calmodulin [1] is 1.8 (10.8) × 10^-1 s^-1. Besides, at bovine brain calmodulin [2], the kon was 930000 M⁻¹ s⁻¹.
